According to publication PMC9854251 (Biochemistry, 2022):
Several values for one entry are separate records, joined by “and”; a condition that tells them apart may be missing. Equal values may be shown once.

How the values were obtained:
[1] = molecular target: T1, hHINT2 WT (Homo sapiens, UniProt Q9BX68); test: Isothermal titration calorimetry, hHINT2 WT; assay type: binding
[2] = molecular target: T2, hHINT2 R99Q (Homo sapiens, UniProt Q9BX68, R99Q); test: Isothermal titration calorimetry, hHINT2 R99Q; assay type: binding
[3] = system: hHINT1 WT; details: ITC; cited from earlier work
[4] = molecular target: T3, hHINT1 Q62A (Homo sapiens, UniProt P49773, Q62A); test: Steady-state kinetics assay; assay type: biochemical
[5] = molecular target: T4, hHINT1 Q62R (Homo sapiens, UniProt P49773, Q62R); test: Steady-state kinetics assay; assay type: biochemical; details: steady-state 25 °C
[6] = molecular target: T3, hHINT1 Q62A; test: Stopped-flow burst-phase adenylation kinetics, hHINT1 Q62A; assay type: biochemical
[7] = molecular target: T4, hHINT1 Q62R; test: Stopped-flow burst-phase adenylation kinetics, hHINT1 Q62R; assay type: biochemical
[8] = molecular target: T5, hHINT2 R99A (Homo sapiens, UniProt Q9BX68, R99A); test: Steady-state kinetics assay; assay type: biochemical
[9] = molecular target: T2, hHINT2 R99Q; test: Steady-state kinetics assay; assay type: biochemical; details: steady-state 25 °C
[10] = molecular target: T1, hHINT2 WT; test: Stopped-flow burst-phase adenylation kinetics, hHINT2 WT; assay type: biochemical
[11] = molecular target: T5, hHINT2 R99A; test: Stopped-flow burst-phase adenylation kinetics, hHINT2 R99A; assay type: biochemical
[12] = molecular target: T2, hHINT2 R99Q; test: Stopped-flow burst-phase adenylation kinetics, hHINT2 R99Q; assay type: biochemical
[13] = molecular target: hHINT1 (Homo sapiens, UniProt P49773); test: Time course simulation; assay type: biochemical
[14] = molecular target: hHINT2 (Homo sapiens, UniProt Q9BX68); test: Time course simulation; assay type: biochemical
[15] = system: hHINT1 WT; details: steady-state 25 °C, cited from earlier work
[16] = system: hHINT1 WT; details: cited from earlier work
[17] = pH 7.2, read-out: k1, E+TpAd ⇆ E•TpAd
[18] = pH 7.2, read-out: k−1, E+TpAd ⇆ E•TpAd
[19] = time course simulation, 4.3 °C, hHINT1
[20] = time course simulation, 4.3 °C, hHINT1, k4 and k5 can be interchanged without altering the fit
[21] = time course simulation, 4.3 °C, hHINT2
[22] = time course simulation, 4.3 °C, hHINT2, k4 and k5 can be interchanged without altering the fit

T4 sequence (P49773 whole entry Q62R): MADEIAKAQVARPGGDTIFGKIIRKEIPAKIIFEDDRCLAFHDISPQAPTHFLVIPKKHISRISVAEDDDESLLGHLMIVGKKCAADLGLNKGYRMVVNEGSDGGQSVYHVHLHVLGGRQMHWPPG
hHINT2, sequence (Q9BX68 37-163 limits assumed): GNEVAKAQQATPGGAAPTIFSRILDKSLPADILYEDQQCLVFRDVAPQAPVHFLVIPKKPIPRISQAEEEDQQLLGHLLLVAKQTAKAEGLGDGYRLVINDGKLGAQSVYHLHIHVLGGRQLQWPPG
T1 sequence (Q9BX68 37-163 limits assumed): as above
T2 sequence (Q9BX68 37-163 R99Q limits assumed): as the sequence (Q9BX68 37-163 limits assumed) above, with R63Q counted along it
T5 sequence (Q9BX68 37-163 R99A limits assumed): as the sequence (Q9BX68 37-163 limits assumed) above, with R63A counted along it
T3 sequence (P49773 whole entry Q62A): as the sequence (P49773 whole entry Q62R) above, with R62A counted along it
hHINT1, sequence (P49773 whole entry): as the sequence (P49773 whole entry Q62R) above, with R62Q counted along it

O=C(CCc1c[nH]c2ccccc12)NS(=O)(=O)OC[C@H]1O[C@@H](n2cnc3c2ncn2ccnc32)[C@H](O)[C@@H]1O [Inhibitor 1]
Kd [1]: 9.43 ± 0.45 µM | ΔH ([1]; ITC 25 °C, 10 mM Tris, 150 mM NaCl, pH 7.2, hHINT2 WT): -10.54 ± 0.16 kcal/mol | -TΔS ([1]; ITC 25 °C, pH 7.2, hHINT2 WT): 3.69 ± 0.17 kcal/mol | n (binding stoichiometry) ([1]; ITC 25 °C, pH 7.2, hHINT2 WT): 0.80 | ΔG ([1]; ITC 25 °C, pH 7.2, hHINT2 WT): -6.84 ± 0.32 kcal/mol | Kd [2]: 6.94 ± 0.51 µM | -TΔS ([2]; ITC 25 °C, pH 7.2, hHINT2 R99Q): 7.68 ± 0.55 kcal/mol | n (binding stoichiometry) ([2]; ITC 25 °C, pH 7.2, hHINT2 R99Q): 1.1 | ΔH ([2]; ITC 25 °C, pH 7.2, hHINT2 R99Q): -14.72 ± 0.10 kcal/mol | -TΔS [3]: 8.19 ± 0.13 kcal/mol

Nc1ncnc2c1ncn2[C@@H]1O[C@H](COP(=O)(O)NCCc2c[nH]c3ccccc23)[C@@H](O)[C@H]1O [TpAd, adenosine tryptamine phosphoramidate monoester]
kcat decrease, hHINT1 Q62A vs wild-type ([4]; steady-state): 5 fold | Km Q62A/WT Ratio ([4]; steady-state 25 °C, hHINT1): 0.12 | kcat Q62A/WT Ratio ([4]; steady-state 25 °C, hHINT1): 0.21 | kcat/Km Q62A/WT Ratio ([4]; steady-state 25 °C, hHINT1): 1.87 | kcat Q62R/WT Ratio [5]: 0.67 | kcat/Km Q62R/WT Ratio [5]: 0.73 | Kd [6]: 4.9 ± 0.5 µM | k2 Q62A/WT Ratio ([6]; burst phase 25 °C, hHINT1): 0.85 | k2 (adenylation rate constant) ([6]; burst phase 25 °C, hHINT1 Q62A): 172 ± 6 s⁻¹ | Kd [7]: 2.9 ± 0.2 µM | KD Q62R/WT Ratio ([7]; burst phase 25 °C, hHINT1): 0.2 | k2 Q62R/WT Ratio ([7]; burst phase 25 °C, hHINT1): 0.89 | k2 (adenylation rate constant) ([7]; burst phase 25 °C, hHINT1 Q62R): 180 ± 9 s⁻¹ | decrease in steady-state turnover, hHINT2 R99A vs wild-type ([8]; steady-state): 2 fold | Km R99A/WT Ratio ([8]; steady-state 25 °C, hHINT2): 0.75 | kcat R99A/WT Ratio ([8]; steady-state 25 °C, hHINT2): 0.46 | kcat/Km R99A/WT Ratio ([8]; steady-state 25 °C, hHINT2): 0.65 | Km R99Q/WT Ratio [9]: 0.92 | kcat R99Q/WT Ratio [9]: 1.04 | kcat/Km R99Q/WT Ratio [9]: 1.18 | Kd [10]: 5.44 ± 0.58 µM | k2 (adenylation rate constant) ([10]; burst phase 4 °C, hHINT2 WT): 89.7 s⁻¹ and 89.7 ± 5.1 s⁻¹ | Kd [11]: 6 ± 0.47 µM | KD R99A/WT Ratio ([11]; burst phase 4 °C, hHINT2): 1.10 | k2 R99A/WT Ratio ([11]; burst phase 4 °C, hHINT2): 0.96 | k2 (adenylation rate constant) ([11]; burst phase 4 °C, hHINT2 R99A): 86.4 ± 6.1 s⁻¹ | Kd [12]: 5.45 ± 0.6 µM | KD R99Q/WT Ratio ([12]; burst phase 4 °C, hHINT2): 1.00 | k2 R99Q/WT Ratio ([12]; burst phase 4 °C, hHINT2): 1.04 | k2 (adenylation rate constant) ([12]; burst phase 4 °C, hHINT2 R99Q): 93.2 ± 5.0 s⁻¹ | kon [13, 17]: > 9.5e+06 M⁻¹ s⁻¹ | koff [13, 18]: > 60 s⁻¹ | k2, E•TpAd ⇆ E-NMP•Tp [13, 19]: 56.5 ± 2.5 s⁻¹ | k3, E-NMP•Tp ⇆ E-NMP + Tp [13, 19]: >2000 s⁻¹ | k−2, E•TpAd ⇆ E-NMP•Tp [13, 19]: 0 | k−3, E-NMP•Tp ⇆ E-NMP + Tp [13, 19]: 0 | k−4, E-NMP + H20 ⇆ E’-NMP [13, 19]: 0 | k−5, E’-NMP ⇆ E + NMP [13, 19]: 0 | k4, E-NMP + H20 ⇆ E’-NMP [13, 20]: 0.41 ± 0.03 s⁻¹ | k5, E’-NMP ⇆ E + NMP [13, 20]: >100 s⁻¹ | fluorescence of bound TpAd relative to unquenched tryptamine ([14]; TpAd bound to hHINT2, constraint giving excellent simulations): ~ 75% | kon [14, 17]: > 5e+07 M⁻¹ s⁻¹ | koff [14, 18]: > 60 s⁻¹ | k2, E•TpAd ⇆ E-NMP•Tp [14, 21]: 60.8 ± 2.5 s⁻¹ | k3, E-NMP•Tp ⇆ E-NMP + Tp [14, 21]: >1640 s⁻¹ | k−2, E•TpAd ⇆ E-NMP•Tp [14, 21]: 0 | k−3, E-NMP•Tp ⇆ E-NMP + Tp [14, 21]: 0 | k−4, E-NMP + H20 ⇆ E’-NMP [14, 21]: 0 | k−5, E’-NMP ⇆ E + NMP [14, 21]: 0 | k4, E-NMP + H20 ⇆ E’-NMP [14, 22]: 1.34 s^−1 ± 0.14 s^−1 | k5, E’-NMP ⇆ E + NMP [14, 22]: >34 s⁻¹ | Km [15]: 0.13 ± 0.02 µM | kcat ([15]; substrate turnover): 2.1 ± 0.1 s⁻¹ | k2 (adenylation rate constant) ([16]; burst phase 25 °C): 203 s⁻¹ and 203 ± 13 s⁻¹ | Kd ([16]; read-out: KD (substrate binding), burst phase 25 °C): 13 ± 2 µM
